Measured values as given in patent US11041009B2, “Glucose responsive insulin comprising a tri-valent sugar cluster for treatment of diabetes” (Merck Sharp & Dohme Corp., priority 2017, dated 2021).

How the values were obtained:
human IR(B) = target: T1, human IR(B) (Homo sapiens, UniProt P06213); experiment: Insulin Receptor Phosphorylation Assay (MSD pIR assay; Methods A and B); assay type: cell-based; conditions: Method B: IR phosphorylation assay, 384-well with automated liquid dispense; CHO cells expressing human IR(B); read-out: IR Activation IP†
T1 construct: expressed in transfected cells
Procedure: Insulin Receptor Phosphorylation Assays were performed as follows.
Cells were harvested and frozen in aliquots for use in the MSD pIR assay. Briefly, the frozen cells were plated in either 96-well (40,000 cells/well, Method A) or 384-well (10,000 cells/well, Method B) clear tissue culture plates and allowed to recover. IOC molecules at the appropriate concentrations were added and the cells incubated for 8 min at 37° C. The media was aspirated and chilled MSD cell lysis buffer was added as per MSD kit instructions. The cells were lysed on ice for 40 min and the lysate then mixed for 10 minutes at room temperature. The lysate was transferred to the MSD kit pIR detection plates. The remainder of the assay was carried out following the MSD kit recommended protocol.

[1] = target: human insulin receptor type B (IR(B)) (Homo sapiens, UniProt P06213); experiment: Insulin Receptor Binding Assay, scintillation proximity assay with cell membranes (Method D)
[2] = target: T2, Human macrophage mannose receptor 1 (MRC1) (Homo sapiens, UniProt P22897); experiment: MRC1 competition binding assay with Eu-labeled mannosylated-BSA (Methods E and F); conditions: Method F: MRC1 assay in a 384-well plate; read-out: MRC1 Binding IP‡
T2 sequence (P22897 19-1456): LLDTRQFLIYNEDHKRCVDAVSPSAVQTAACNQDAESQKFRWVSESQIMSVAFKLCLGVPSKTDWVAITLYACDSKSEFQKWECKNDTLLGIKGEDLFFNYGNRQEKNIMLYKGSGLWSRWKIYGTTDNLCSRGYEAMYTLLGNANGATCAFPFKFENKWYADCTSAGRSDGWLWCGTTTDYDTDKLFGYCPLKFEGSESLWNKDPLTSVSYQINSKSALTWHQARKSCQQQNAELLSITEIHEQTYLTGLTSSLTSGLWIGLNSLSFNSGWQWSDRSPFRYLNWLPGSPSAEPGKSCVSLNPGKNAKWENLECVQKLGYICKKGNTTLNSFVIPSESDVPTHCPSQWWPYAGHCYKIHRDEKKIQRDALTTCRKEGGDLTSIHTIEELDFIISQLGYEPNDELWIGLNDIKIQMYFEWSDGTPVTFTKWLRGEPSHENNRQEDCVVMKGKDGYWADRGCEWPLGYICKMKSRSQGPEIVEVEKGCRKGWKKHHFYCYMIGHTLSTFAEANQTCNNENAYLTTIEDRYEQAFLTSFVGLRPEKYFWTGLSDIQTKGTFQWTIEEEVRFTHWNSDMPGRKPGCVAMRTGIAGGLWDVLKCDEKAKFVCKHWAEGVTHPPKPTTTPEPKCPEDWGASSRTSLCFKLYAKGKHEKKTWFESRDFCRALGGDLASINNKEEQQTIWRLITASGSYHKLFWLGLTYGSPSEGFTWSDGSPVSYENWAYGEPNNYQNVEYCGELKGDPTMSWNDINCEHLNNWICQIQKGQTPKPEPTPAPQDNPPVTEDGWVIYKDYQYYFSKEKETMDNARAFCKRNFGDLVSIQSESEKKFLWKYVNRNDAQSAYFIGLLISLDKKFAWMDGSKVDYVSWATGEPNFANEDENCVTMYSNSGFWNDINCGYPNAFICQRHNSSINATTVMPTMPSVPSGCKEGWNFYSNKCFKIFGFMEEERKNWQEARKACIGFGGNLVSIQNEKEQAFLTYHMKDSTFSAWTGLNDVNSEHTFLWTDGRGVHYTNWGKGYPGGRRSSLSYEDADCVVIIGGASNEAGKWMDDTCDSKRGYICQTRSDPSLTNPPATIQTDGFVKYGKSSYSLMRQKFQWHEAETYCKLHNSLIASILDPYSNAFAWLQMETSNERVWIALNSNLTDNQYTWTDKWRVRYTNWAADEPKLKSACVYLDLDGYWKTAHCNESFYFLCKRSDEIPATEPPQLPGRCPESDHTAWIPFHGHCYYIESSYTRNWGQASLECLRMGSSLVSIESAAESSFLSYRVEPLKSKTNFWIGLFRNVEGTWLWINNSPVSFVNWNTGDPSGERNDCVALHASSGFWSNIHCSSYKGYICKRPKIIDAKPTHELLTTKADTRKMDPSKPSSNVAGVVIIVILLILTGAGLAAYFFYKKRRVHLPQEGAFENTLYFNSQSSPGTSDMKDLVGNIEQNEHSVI
Procedure: Human macrophage mannose receptor 1 (MRC1) Binding Assays were performed as follows.
The competition binding assay for MRC1 utilized a ligand, mannosylated-BSA labeled with the DELFIA Eu-N1-ITC reagent, as reported in the literature. Assay was performed either in a 96-well plate with 100 μL well volume (Method E) or in a 384-well plate with 25 μL well volume (Method F). […] The antibody was incubated in the plate for 1 hr at room temperature with shaking. The plate was washed with wash buffer 3-5 times followed by addition of MRC1 (2 ng/μl final concentration) in PBS containing 1% stabilizer BSA. The plate was incubated at room temperature with gentle shaking for 1 hr. The plate was washed three times with wash buffer. The IOC molecules in 12.5 μL (or 50 μL depending on plate format) buffer at appropriate concentrations were added followed by 12.5 μL (or 50 μL) Eu-mannosylated-BSA (0.1 nM final concentration) in 50 mM Tris, pH 7.5 containing 100 mM NaCl, 5 mM CaCl2, 1 mM MgCl2 and 0.2% stabilizer BSA. The plate was incubated for 2 hrs at room temperature with shaking followed by washing three times with wash buffer. Perkin Elmer Eu-inducer reagent was added and incubated for 30 min at room temperature prior to detection of the Eu signal (Excitation=340 nm: Emission=615 nm).

Chain of human insulin receptor type B (IR(B)) (P06213 28-758 limits assumed): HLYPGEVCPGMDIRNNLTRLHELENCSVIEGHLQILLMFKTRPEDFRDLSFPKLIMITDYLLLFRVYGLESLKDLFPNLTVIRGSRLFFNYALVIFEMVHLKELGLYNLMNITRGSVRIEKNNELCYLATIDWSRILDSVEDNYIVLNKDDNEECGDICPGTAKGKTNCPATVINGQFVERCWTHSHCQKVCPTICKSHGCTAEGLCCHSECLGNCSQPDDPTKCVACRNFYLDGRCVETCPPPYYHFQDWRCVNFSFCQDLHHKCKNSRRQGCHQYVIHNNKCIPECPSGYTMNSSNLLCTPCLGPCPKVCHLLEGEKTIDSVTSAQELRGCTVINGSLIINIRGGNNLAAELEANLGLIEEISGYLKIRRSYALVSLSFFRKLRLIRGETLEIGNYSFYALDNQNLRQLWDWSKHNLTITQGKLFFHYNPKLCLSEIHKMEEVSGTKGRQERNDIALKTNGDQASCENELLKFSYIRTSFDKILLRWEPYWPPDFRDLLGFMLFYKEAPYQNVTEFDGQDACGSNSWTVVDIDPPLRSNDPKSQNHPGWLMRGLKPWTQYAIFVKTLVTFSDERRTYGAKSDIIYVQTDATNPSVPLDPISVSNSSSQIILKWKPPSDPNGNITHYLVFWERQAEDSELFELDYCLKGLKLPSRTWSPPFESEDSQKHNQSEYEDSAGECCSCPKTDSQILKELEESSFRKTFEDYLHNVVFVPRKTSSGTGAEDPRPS
Chain of human insulin receptor type B (IR(B)) (P06213 763-1382 partner limits assumed): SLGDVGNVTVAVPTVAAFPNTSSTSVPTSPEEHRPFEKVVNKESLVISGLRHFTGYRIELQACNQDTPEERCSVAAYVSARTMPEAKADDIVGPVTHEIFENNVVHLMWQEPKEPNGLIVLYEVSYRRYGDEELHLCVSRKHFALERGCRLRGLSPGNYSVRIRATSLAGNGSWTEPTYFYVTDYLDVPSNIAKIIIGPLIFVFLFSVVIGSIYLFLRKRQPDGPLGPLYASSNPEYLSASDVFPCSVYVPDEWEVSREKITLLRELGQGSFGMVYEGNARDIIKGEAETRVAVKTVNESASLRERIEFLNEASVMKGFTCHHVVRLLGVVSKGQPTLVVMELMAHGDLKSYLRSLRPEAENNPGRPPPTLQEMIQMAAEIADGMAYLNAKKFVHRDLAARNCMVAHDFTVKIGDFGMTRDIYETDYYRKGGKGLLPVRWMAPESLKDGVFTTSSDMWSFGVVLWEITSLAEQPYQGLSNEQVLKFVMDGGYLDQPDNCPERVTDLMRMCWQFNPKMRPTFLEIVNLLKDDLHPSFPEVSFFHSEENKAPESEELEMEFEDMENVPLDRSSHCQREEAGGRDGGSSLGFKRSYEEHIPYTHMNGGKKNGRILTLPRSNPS
T1 sequence (P06213 28-758 limits assumed): as the sequence (P06213 28-758 limits assumed) above
T1 sequence (P06213 763-1382 partner limits assumed): as the sequence (P06213 763-1382 partner limits assumed) above

## CC[C@H](C)[C@H](NC(=O)CN)C(=O)N[C@H](C(=O)N[C@@H](CCC(=O)O)C(=O)N[C@@H](CCC(N)=O)C(=O)N[C@H]1CSSC[C@@H]2NC(=O)[C@H]([C@@H](C)CC)NC(=O)[C@H](CO)NC(=O)[C@H]([C@@H](C)O)NC(=O)[C@H](CSSC[C@H](NC(=O)[C@H](CC(C)C)NC(=O)[C@H](Cc3c[nH]cn3)NC(=O)[C@H](CCC(N)=O)NC(=O)[C@H](CC(N)=O)NC(=O)[C@@H](NC(=O)[C@H](Cc3ccccc3)NC(=O)CCCCC(=O)N(CC(=O)NCCO[C@@H]3O[C@H](CO)[C@@H](O)[C@H](O)[C@H]3O)CC(=O)N(CCO[C@H]3O[C@H](CO)[C@@H](O)[C@H](O)[C@@H]3O)CCO[C@H]3O[C@H](CO)[C@@H](O)[C@H](O)[C@@H]3O)C(C)C)C(=O)NCC(=O)N[C@@H](CO)C(=O)N[C@@H](Cc3c[nH]cn3)C(=O)N[C@@H](CC(C)C)C(=O)N[C@@H](C(C)C)C(=O)N[C@@H](CCC(=O)O)C(=O)N[C@@H](C)C(=O)N[C@@H](CC(C)C)C(=O)N[C@@H](Cc3ccc(O)cc3)C(=O)N[C@@H](CC(C)C)C(=O)N[C@@H](C(C)C)C(=O)N[C@H](C(=O)NCC(=O)N[C@@H](CCC(=O)O)C(=O)N[C@@H](CCCNC(=N)N)C(=O)NCC(=O)N[C@@H](Cc3ccccc3)C(=O)N[C@@H](Cc3ccccc3)C(=O)N[C@@H](Cc3ccc(O)cc3)C(=O)N[C@H](C(=O)N3CCC[C@H]3C(=O)N[C@@H](CCCCNC(=O)CCCCC(=O)N(CC(=O)NCCO[C@@H]3O[C@H](CO)[C@@H](O)[C@H](O)[C@H]3O)CC(=O)N(CCO[C@H]3O[C@H](CO)[C@@H](O)[C@H](O)[C@@H]3O)CCO[C@H]3O[C@H](CO)[C@@H](O)[C@H](O)[C@@H]3O)C(=O)N[C@H](C(=O)O)[C@@H](C)O)[C@@H](C)O)CSSC[C@@H](C(=O)N[C@@H](CC(N)=O)C(=O)O)NC(=O)[C@H](Cc3ccc(O)cc3)NC(=O)[C@H](CC(N)=O)NC(=O)[C@H](CCC(=O)O)NC(=O)[C@H](CC(C)C)NC(=O)[C@H](CCC(N)=O)NC(=O)[C@H](Cc3ccc(O)cc3)NC(=O)[C@H](CC(C)C)NC(=O)[C@H](CO)NC2=O)NC1=O)C(C)C [IOC-63]
Human IR(B)
  EC50: 0.63 nM
[1]
  IC50: 1.65 nM
[2]
  IC50: 70.2 nM
